Reference: patent US9877961B2, “Anticoagulant reversal agents” (PEROSPHERE INC., priority 2011, dated 2018)
Entries after “also recorded” stand apart in the source; their conditions may differ.

Key:
[1] = tested on: fondaparinux anticoagulation; assay: DAP reversal of fondaparinux (ARIXTRA®) anticoagulation in vivo, chromogenic Factor Xa assay; set-up: species or system rat
Method: (§1) The anti-factor Xa assay directly measures anti-factor Xa activity. The methodology behind an anti-factor Xa assay is that patient plasma is added to a known amount of excess factor Xa and excess antithrombin. If a factor Xa inhibitor is present in the patient plasma, it will reduce the enzymatic activity of factor Xa. The amount of residual factor Xa is inversely proportional to the amount of anti-Xa agent in the plasma. The amount of residual factor Xa is detected by adding a chromogenic substrate that mimics the natural substrate of factor Xa, making residual factor Xa cleave it, releasing a colored compound that can be detected by a spectrophotometer. […] Results are given in anticoagulant concentration in units/mL of antifactor Xa, such that high values indicate high levels of anticoagulation and low values indicate low levels of anticoagulation.
5 mg/kg fondaparinux was administered subcutaneously to rats. 200 mg/kg DAP was administered intravenously after 2 hours. Activity was measured by chromogenic 510 k cleared Factor Xa Assay (Biophen) at 10, 20, 30 and 60 minutes after DAP administration.

[2] = tested on: unfractionated heparin anticoagulation; assay: DAP reversal of unfractionated heparin anticoagulation in vivo, aPTT; set-up: species or system rat
Excerpt: (§2) The activated partial thromboplastin time (aPTT) assay is an assay that measures how long it takes for the blood to clot. Blood samples are collected for direct measurement or in tubes with oxalate and citrate to arrest coagulation by calcium until the assay can be performed. In the assay, a phospholipid, an activator (silica, celite, kaolin, ellagic acid, etc.), and calcium are mixed into the plasma to induce coagulation. The assay measures the time until a thrombus (clot) forms.
A male albino rat, weighing 515 g, was administered 10 mg/kg of unfractionated heparin (5 mg UFH) by subcutaneous injection.
200 mg/kg of DAP (100 mg DAP) was administered as two intravenous bolus injections after UFH administration. Subsequently, the rat was administered a dose of 400 mg/kg of DAP (200 mg of DAP). aPTT was measured throughout the course of the entire treatment.

apixaban anticoagulation = assay: DAP reversal of apixaban in human plasma ex vivo, Biophen anti-Factor Xa chromogenic assay; type: biochemical
Method: as §1
218 μg/L or 459 μg/L of rivaroxaban was added to human plasma, with or without 1,250 μg/L or 6,250 μg/L of DAP, respectively. […] DAP effect on anticoagulation was measured by 510 k cleared Biophen anti-Factor Xa chromogenic assay. Rivaroxaban concentrations were determined by comparison with plasma calibration standards, while apixaban concentrations were inferred from stock solution dilutions as calibration standards are not yet available.

[3] = tested on: rivaroxaban (XARELTO®) anticoagulation; assay: DAP reversal of rivaroxaban (XARELTO®) anticoagulation in vivo, aPTT; set-up: species or system rat; settings: rats, 5 mg/kg rivaroxaban oral, 5 mg/kg (2 mg) DAP i.v.
Method: as §2
5 mg/kg rivaroxaban (XARELTO®) was orally administered to rats. After four hours, 5 mg/kg of DAP (2 mg DAP) was administered intravenously. aPTT were measured at zero, 15, 30, 45, 60 and 240 minutes, prior to administration of DAP. aPTT was again measured at about 5, 10, 25, 35, 45, 60, 120, and 240 minutes after DAP administration.

[4] = DLS association of DAP with fondaparinux; type: binding
Method: Rivaroxaban (XARELTO®) alone, DAP alone, and DAP:rivaroxaban combinations at mass ratios of 1:1 and 10:1 were added into an aqueous solution and analyzed by dynamic light scattering (DLS) to assess association of the DAP and rivaroxaban. A similar experiment was conducted on apixaban (ELIQUIS®) alone, DAP alone, and DAP:apixaban combinations at mass ratios of 1:1, 10:1 and 100:1. Fondaparinux (ARIXTRA®) alone, DAP alone, and fondaparinux:DAP combinations at mass ratios of 1:1, 10:1 and 100:1 were similarly tested. LMWH (bemiparin; HIBOR®), alone, DAP alone, and LMWH:DAP combinations at mass ratios of 1:1, 10:1, and 100:1 were also tested. The concentration of LMWH tested was 0.1 mg/ml. Therefore, at 1:1, 0.1 mg/ml DAP was tested, at 10:1, 1 mg/ml was tested, and at 100:1, 10 mg/ml DAP was tested.

[5] = tested on: LMWH (bemiparin) anticoagulation; assay: DAP reversal of LMWH (bemiparin) anticoagulation in vivo, aPTT; set-up: species or system rat
Excerpt: as §2
A male albino rat, weighing 470 g, was administered 10 mg of bemiparin (an overdose of LMWH) by subcutaneous injection. aPTT time was measured over the course of five hours. Four hours after LMWH administration, the rat received an intravenous dose of 200 mg/kg of DAP (100 mg DAP).

[6] = tested on: edoxaban (LIXIANA®) anticoagulation; assay: Rat tail transection bleeding assay, edoxaban; type: in vivo
Method: Rat tail bleeding assay or rat tail transection assay is an assay that measures blood loss, e.g., blood loss after drug administration. In one embodiment, where the effect of the compound of the invention (e.g., DAP) is being tested, at the Tmax of the anticoagulant, DAP is administered intravenously. After 20 minutes, rat tails are transected approximately 1 mm from the tip, placed in room temperature saline, and blood is collected for 30 minutes and weighed.
Three rats each were administered 2 mg of rivaroxaban. One rat received a sham reversal containing no DAP, the second received 2.5 mg of DAP, and the third received 12.5 mg DAP. A fourth fat received sham anticoagulant and reversal doses (“sham”). 20 minutes after the reversal dose, tails were transected 1 mm from the tip, placed in room temperature saline, and blood loss was collected for 30 minutes and then weighed.
Same procedures were used with 1.25 mg apixaban (ELIQUIS®) alone or in combination with 5 or 12.5 mg DAP; with 15.5 mg dabigatran etexilate (PRADAXA®) alone or in combination with 5 or 12.5 mg DAP; […]

[7] = tested on: dabigatran (PRADAXA®) anticoagulation; assay: DAP reversal of dabigatran (PRADAXA®) anticoagulation in vivo, aPTT; set-up: species or system rat; settings: 15.5 mg/kg PRADAXA®, 100 mg/kg DAP (FIG. 13)

- binding by DLS [4]: directly bound
Structure (SMILES): N=C(N)NCCC[C@H](N)C(=O)NCCCN1CCN(CCCNC(=O)[C@@H](N)CCCNC(=N)N)CC1 (stereo in doubt) [DAP, 2-Amino-5-guanidino-pentanoic acid (3-{4-[3-(2-amino-5-guanidino-pentanoylamino)-propyl]-piperazin-1-yl}-propyl)-amide]
- time to reversal of fondaparinux anticoagulation ([1]; 5 mg/kg fondaparinux s.c., 200 mg/kg DAP i.v. after 2 hours): ≤ 10 min
- reversal of subcutaneous fondaparinux in vivo ([1]; rats, Xa activity): reversed
- aPTT after DAP ([2]; 200 mg DAP i.v., 10 minutes): 33 s
- aPTT after DAP ([2]; first 100 mg DAP i.v., 20 minutes): 48 s
- reversal of unfractionated heparin in vivo ([2]; rat, in vivo): reversed
- aPTT after DAP ([2]; second 100 mg DAP i.v., 15 minutes): 47 s
- aPTT risen after first DAP dose ([2]; within 1 hour after first 100 mg DAP): 120 s
- aPTT risen after second DAP dose ([2]; within 1 hour after second 100 mg DAP): 96 s
- effective anticoagulant concentration after DAP (apixaban anticoagulation; 156 μg/L apixaban with 1,156 μg/L DAP, 313 μg/L apixaban with 3,125 μg/L DAP): below the minimum effective concentration
- dose dependence of apixaban reversal (apixaban anticoagulation; human blood ex vivo): dose-dependent reversal
- reversal of oral rivaroxaban anticoagulation in vivo [3]: effectively reversed
- time until aPTT below baseline after DAP ([5]; 200 mg/kg (100 mg) DAP i.v. four hours after 10 mg bemiparin s.c.): ≤ 60 min
- reversal of subcutaneous LMWH anticoagulation in vivo ([5]; rats, aPTT): reversed
- blood loss (blood collected over 30 minutes) ([6]; 1.25 mg edoxaban and 12.5 mg DAP, p<0.05 vs edoxaban only): reduced blood loss to sham dose levels
- reversal of edoxaban, blood loss vs anticoagulant only ([6]; rat tail transection, 30 minutes): reversed; also recorded: statistically significant reduction in blood loss
- time until aPTT returned to normal after DAP [7]: ≤ 30 min
